According to patent US5132414A, “Dideoxynucleoside-5'-phosphonoformic acid compounds” (Dana-Farber Cancer Institute, Inc., priority 1990, dated 1992):

Assays:
[1] = Inhibition of growth of human peripheral blood leukocytes; type: cell-based; settings: at 10^-4 M, H-PBLs, read-out: inhibition of PBL growth
Description: FIG. 3B is a graph showing inhibition of growth of human peripheral blood leukocytes;
(§1) For biological testing, a stock solution of the free acid of Example 1 was made up in DMSO and dispensed into RPMI 1640 cell growth medium to give the desired range of concentrations. The final DMSO concentration in the medium was <0.1%. These solutions in cell growth medium were used in all of the biological tests described below.
(§2) The activities of the compound of Example 1, AZT, and PFA were also examined in cultured human peripheral blood leukocytes (H-PBLs) infected with HIV-1. […] In both PBLs and Jurkat cells, therefore, the antiviral potency of the compound of Example 1 resembled that of AZT, while its low cytotoxicity was more reminiscent of that of PFA.

[2] = system: HIV-1; assay: Inhibition of HIV-1 replication in cultured human peripheral blood leukocytes; type: cell-based; settings: Human immunodeficiency virus 1, Leukocyte; H-PBLs; added 4 hours before virus, measured at 4 days; read-out: 50% inhibition of viral replication
Description: FIG. 3A is a graph showing inhibition of HIV-1 replication in human peripheral blood leukocytes;
as §1, §2

[3] = system: CEM cells; assay: Inhibition of CEM cell growth; type: cell-based, human; settings: for IC50: Homo sapiens, CCRF-CEM, 72 h, read-out: approximate IC50 for CEM cell growth
Description: (§3) FIG. 5A is a graph showing inhibition by AZT of retroviral propagation and of cell growth in cultured human lymphoblasts infected with simian immuno-deficiency virus;
(§4) FIG. 5B is a graph showing the results of using one embodiment of the invention in the same test as that of FIG. 5A.
as §1
(§5) The activities of AZT and of the compound of Example 1 against simian immunodeficiency virus (SIV) in cultured human lymphoblasts (CEM cells) were assayed; the results are shown in FIGS. 5A and 5B, respectively. The drugs were added to the culture 4 hours before the virus and inhibition was measured at 3 days.

[4] = system: HIV-1; assay: Inhibition of HIV-1 replication in Jurkat cells (RT activity), drugs added 4 h before virus (prophylaxis model); type: cell-based; settings: for IC95: 96 h, read-out: concentration needed to achieve the same degree of inhibition (>95% inhibition of RT activity); for IC50: read-out: 50% inhibitory concentration (IC50), RT activity in culture supernatants
Experimental: The final DMSO concentration in the medium was <0.1%. These solutions in cell growth medium were used in all of the biological tests described below.
In a second evaluation, the compound salt of Example 1, AZT, and PFA were compared as inhibitors of HIV-1 replication in Jurkat cells when added to the cultures 4 h before the virus (i.e., in a prophylaxis model). The drugs were present through the length of the experiment (4 days).

[5] = system: monkey peripheral blood leukocytes (M-PBLs); assay: Growth inhibition / toxicity to monkey peripheral blood leukocytes; type: cell-based; settings: in words
Description: (§6) FIG. 6A is a graph showing results of a test similar to that of FIG. 5A except that monkey peripheral blood leukocytes were used; and
(§7) FIG. 6B is a graph showing inhibition by one embodiment of the invention under the same conditions as in FIG. 5B.
as §1, §5

[6] = system: Rauscher murine leukemia virus (RLV); assay: Plaque assay: inhibition of plaque formation by Rauscher murine leukemia virus in mouse fibroblast cultures; type: cell-based; settings: for inhibition of plaque formation: added 4 hours before virus, 4 days
Description: FIG. 4A is a graph showing inhibition of plaque formation by a different retrovirus (a murine leukemia virus) in mouse fibroblast cultures;
as §1
The compound of Example 1 as well as AZT and PFA were also tested in a plaque assay for the ability to inhibit plaque formation in mouse fibroblast cultures by Rauscher murine leukemia virus (RLV), a type C retrovirus; the results are shown in FIG. 4A. Drugs were added to the cultures 4 hours before the virus, and inhibition was measured at 4 days. The cytotoxicity of all the agents to non-infected fibroblasts was also determined and found to be <50% at concentrations of up to 10^-5 M as shown in FIG. 4B. […] When AZT alone was used at a concentration of only 10^-9 M there was no effect, but when AZT and PFA were combined, each at concentrations of 10^-9 M, there was almost 50% inhibition of plaque formation even though the PFA was not used in excess.

[7] = system: simian immunodeficiency virus (SIV); assay: Inhibition of SIV in cultured human lymphoblasts (CEM cells), RT activity; type: cell-based; settings: CCRF-CEM, added 4 hours before virus, measured at 3 days, read-out: approximate IC50 for inhibition of RT activity in SIV-infected CEM cells
Description: as §3, §4, §1, §5

[8] = Inhibition of Jurkat cell growth; type: cell-based, human; settings: human; at 10^-5 M; Jurkat cells; read-out: growth inhibition of host cells
Description: (§8) FIG. 2B is a graph showing inhibition of Jurkat cell growth under the same conditions as in FIG. 2A;
as §1
(§9) In a second evaluation, the compound salt of Example 1, AZT, and PFA were compared as inhibitors of HIV-1 replication in Jurkat cells when added to the cultures 4 h before the virus (i.e., in a prophylaxis model). The drugs were present through the length of the experiment (4 days). […] Thus, while there was an approximately four-log TI for AZT in this experiment, the TI for the compound of Example 1 could not actually be estimated because the IC50 for cell growth inhibition, extrapolated from the dose-response curve, was >10^-3 M.

[9] = system: simian immunodeficiency virus (SIV); assay: Inhibition of SIV replication in monkey peripheral blood leukocytes (RT activity); type: cell-based
Description: as §6, §7, §1, §5

[10] = Cytotoxicity in non-infected Jurkat cells, 4 days exposure; type: cell-based; settings: human, up to 10^-4 M, read-out: decrease in cell viability
Experimental: as §1
(§10) The compound of Example 1 was tested initially for its ability to inhibit HIV-1 replication in Jurkat cells, a CD4+ human T-lymphocyte line commonly used for this purpose. Reverse transcriptase (RT) activity in the supernatant from the infected cells was used as a measure of viral replication, and the compound was added to the cultures at time zero or 4 h post-infection. Parallel cytotoxicity assays were performed in non-infected Jurkat cells to assess therapeutic selectivity.

[11] = target: T1, HIV-1 RT (Human immunodeficiency virus type 1 group M subtype B, UniProt P04585); assay: Cell-free assay with purified HIV-1 RT; type: biochemical
T1 construct: purified HIV-1 RT
Description: as §1
To examine the question whether RT inhibition by the compound of Example 1 could by itself account for the antiretroviral effect in intact cells, the effect of the compound on RT activity was examined in a cell-free assay with purified HIV-1 RT. An IC50 value (ca. 50 μM) well in excess of the concentration needed to block viral replication was obtained. Therefore, it appears that metabolism is required in the action of the compound of Example 1 or that the compound has one or more targets other than RT in the cell.

[12] = system: HIV-1; assay: Inhibition of HIV-1 replication in Jurkat cells (RT activity in supernatant), compound added at time zero or 4 h post-infection; type: cell-based; settings: Human immunodeficiency virus 1, compound added at time zero or 4 h post-infection, read-out: 50% inhibition of RT activity relative to non-treated HIV-infected cells
Experimental: as §1, §10

[13] = system: Jurkat cells; assay: Inhibition of Jurkat cell growth; type: cell-based, human; settings: Homo sapiens, Jurkat, read-out: IC50 for cell growth inhibition
Description: as §8, §1, §9

[14] = Human immunodeficiency virus 1, Jurkat

| Compound | inhibition at 100 µM [1] [%] | IC50 [2] [µM] | IC50 [3] [µM] | IC95 [4, 14] [µM] | IC50 [4, 14] [µM] | inhibition of plaque formation ([6]; at 10^-7 M) | IC50 [7] [µM] | inhibition at 96 h, 10 µM [8] [%] | further results |
| --- | --- | --- | --- | --- | --- | --- | --- | --- | --- |
| Cc1cn([C@H]2C[C@H](N=[N+]=[N-])[C@@H](CO)O2)c(=O)[nH]c1=O [AZT, 3'-azidothymidine, reference compound] | 80 | ~0.01 | ~2 | 100 | 0.01 | Complete inhibition | ~0.005 | 50 to 60 | concentrations required for inhibition of cell growth in M-PBLs (versus CEM cells) [5]: required higher AZT concentrations; inhibition of plaque formation ([6]; at 10^-9 M): no effect; concentrations required for inhibition of SIV replication in M-PBLs (versus CEM cells) ([9]; in words): required higher AZT concentrations |
| CCOC(=O)P(=O)(O)OC[C@H]1O[C@@H](n2cc(C)c(=O)[nH]c2=O)C[C@@H]1N=[N+]=[N-] [Example 1, 3'-Azido-3'-deoxy-5'-[P-(ethoxycarbonyl)-P-Hydroxyphosphinyl]thymidine] | 20 | ~0.01 | > 100 |  | ~0.002 | inactive | ~0.01 | 20 | cytotoxicity at 96 h, 100 µM [10]: < 10%; times less toxic to the host cells than AZT ([3]; CEM cells, relative to AZT): at least 200 times; inhibition at 0.005 µM ([4]; Human immunodeficiency virus 1, Jurkat, read-out: inhibition of RT activity): > 95%; increase in potency relative to AZT ([4]; Jurkat cells, HIV-1, IC50 comparison with AZT): roughly fivefold; toxicity to the host cell relative to AZT [5]: considerably lower than with AZT; inhibition of plaque formation ([6]; at 10^-5 M): almost complete inhibition; effectiveness in the RLV system relative to AZT or a 1:1 combination of AZT and PFA ([6]; comparison in words): less effective than AZT or a 1:1 combination of AZT and PFA; IC50 [11]: ~50 µM; IC50 [12]: ~0.5 µM; IC50 [13]: > 1000 µM; IC50 ([9]; Simian immunodeficiency virus, Leukocyte, in Primates, M-PBLs, added 4 hours before virus, read-out: 50% inhibition of RT activity (SIV replication)): 0.1 µM |
| O=C(O)P(=O)(O)O [PFA, phosphonoformic acid] |  |  |  | 1000 | 10 |  |  | 30 | inhibition of plaque formation ([6]; until the concentration reached 10^-4 M): no appreciable effect |
